Bridge positions count the residues as written; N and C are the ends. Square brackets hold non-standard residues; d marks the D form. Peptide text beside a SMILES is read from it. * marks the point of attachment. DOTA = O=C(O)CN1CCN(CC(=O)O)CCN(CC(=O)*)CCN(CC(=O)O)CC1; Phe(4-CH2NH2) = NCc1ccc(C[C@H](N)C(=O)O)cc1; 1Nal = N[C@@H](Cc1cccc2ccccc12)C(=O)O; 2Nal = N[C@@H](Cc1ccc2ccccc2c1)C(=O)O; Phe(2-Me) = Cc1ccccc1C[C@H](N)C(=O)O; tBuAla = CC(C)(C)C[C@H](N)C(=O)O; αMeD = C[C@](N)(CC(=O)O)C(=O)O; Chg = N[C@H](C(=O)O)C1CCCCC1; αMeP = C[C@@]1(C(=O)O)CCCN1
Key:
human DLL3 = target: T1, human DLL3 (Homo sapiens, UniProt Q9NYJ7); assay: Affinity determination by Surface Plasmon Resonance (SPR), Biacore, 1:1 binding model; settings: biotinylated human DLL3 on streptavidin chip, 25° C.; NB = nonbinding
T1 construct: biotin (biotinylated)
T1 sequence (Q9NYJ7 27-618): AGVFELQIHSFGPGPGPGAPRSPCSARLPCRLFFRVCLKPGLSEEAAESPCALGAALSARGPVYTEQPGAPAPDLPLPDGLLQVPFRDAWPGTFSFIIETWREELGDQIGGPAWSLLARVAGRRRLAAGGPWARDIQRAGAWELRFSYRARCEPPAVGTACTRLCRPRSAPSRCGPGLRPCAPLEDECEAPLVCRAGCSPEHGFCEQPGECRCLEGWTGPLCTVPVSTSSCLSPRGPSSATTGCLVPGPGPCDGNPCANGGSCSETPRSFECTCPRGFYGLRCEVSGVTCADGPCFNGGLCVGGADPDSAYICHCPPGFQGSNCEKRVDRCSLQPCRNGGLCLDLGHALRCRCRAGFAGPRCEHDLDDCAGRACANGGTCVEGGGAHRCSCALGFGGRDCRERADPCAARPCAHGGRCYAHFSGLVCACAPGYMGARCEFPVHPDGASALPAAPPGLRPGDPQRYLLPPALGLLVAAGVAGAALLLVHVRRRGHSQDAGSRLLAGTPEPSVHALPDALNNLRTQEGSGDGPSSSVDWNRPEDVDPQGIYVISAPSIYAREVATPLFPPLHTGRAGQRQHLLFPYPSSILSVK
Method in brief: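 SPR with biotinylated human DLL3 captured on a streptavidin chip, with a reference surface subtracted. Samples were injected at several concentrations at 100 μL/min in phosphate buffer with 137 mM NaCl, 2.7 mM KCl, 0.05% P20 and 2% DMSO. Kinetic and affinity constants came from a 1:1 binding fit.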

SHP-77 cells [1] = assay: Cell binding (total uptake) of [177Lu]Lu-labeled peptide, gamma counter bound fraction; type: cell-based, human; settings: [177Lu]Lu-test peptide, 1 h, 37° C., 1% PBSA
Experimental: (§1) Example 4. Cell Binding, Internalization, and Radiolabeling of Targeting Moieties Polypeptides General Procedure for Radiolabeling of RPTs with [^177Lu]LuCl3
(§2) [^177Lu]LuCl3 was received from venders in HCl solution. For every mCi of [^177Lu]LUCl3 added to the reaction vial (1.5 mL Eppendorf vial), ammonium acetate buffer (0.2 M, pH 4.9, 100 μL, containing 1% w/v ascorbic acid and 6% v/v ethanol) and peptide conjugate (1 nmol) was added. The pH of the solution was determined to be approximately 5 by using pH strips. The reaction vial was incubated at 80° C., 700 RPM for 17-20 minutes. A sample from the reaction was analyzed by RP-HPLC using an Agilent Infinity II 1260 HPLC to determine reaction completion and radiochemical purity. HPLC conditions: Waters XBridge BEH […] Column, 130 Å, 3.5 um, 4.6 mm×250 mm; mobile phase: Solvent A=water (with 0.1% formic acid), solvent B=acetonitrile (with 0.1% formic acid). Gradients: 25-45% B in 10 minutes, 45-65% B in 12 minutes, 65-90% in 6 minutes at a flow rate of 0.5 mL/min. Required amounts of the product was formulated in 1% PBSA for cell studies.
(§3) The study was conducted using SHP-77cells (Table 7) Adherent cell studies: The cells were cultured in appropriate culture media (20 mL) in tissue culture treated T150 flasks at 37° C. and 5% CO2. Adherent cells were detached (60-70% confluent) using 5 mL Versene at 37° C. for 3 min. After confirming the viability using countess and count of detached cells using Trypan blue, the cells were centrifuged at 4° C. for 5 minutes (1,000 rpm). The cell pellet obtained was washed once with PBS and resuspended in 1% PBSA to obtain the desired cell concentration (5-25 million cells/mL).
as §3, with “Suspension” for “The study was conducted using SHP-77cells (Table 7) Adherent”, “CO2.” for “CO2. Adherent cells were detached (60-70% confluent) using 5 mL Versene at 37° C. for 3 min.”, “viability” for “viability using countess”
(§4) Cell numbers used for the assay were in the range of 5 million cells/condition −25 million cells/condition.
Total uptake: Cells were incubated with 300 μL (0.8 μCi) of the incubation buffer (containing radiolabeled peptide [^177Lu]Lu-test peptide) for 1 hour at 37 C (Table 8). Post incubation, the cells were pelleted and washed 2 times using cold PBS+1% BSA. The supernatant and washes were combined and counted together as “unbound fraction” in a gamma counter. The cells were then resuspended in 300 μL of 1% PBS+1% BSA and counted in the gamma counter as “bound fraction”.
(§5) SHP-77 cells are human-derived, non-engineered SCLC cells.

SHP-77 cells [2] = assay: Internalization of [177Lu]Lu-labeled peptide after glycine acid wash, gamma counter internalized fraction; type: cell-based, human; settings: [177Lu]Lu-test peptide, 1 h, 37° C., acid wash 50 mM Glycine pH 2.5
Experimental: as §1, §2, §3
as §3, with “Suspension” for “The study was conducted using SHP-77cells (Table 7) Adherent”, “CO2.” for “CO2. Adherent cells were detached (60-70% confluent) using 5 mL Versene at 37° C. for 3 min.”, “viability” for “viability using countess”
as §4
Internalization: The resuspended cells in 300 μl of 1% PBSA and counted in the gamma counter as “bound fraction” were collected in 1.5 ml Eppendorf tube and pelleted. The pelleted cells were incubated with 300 μl of 50 mM Glycine pH=2.5 for 3 minutes and then pelleted discarding the supernatant. This process was repeated one more time. The pelleted cells were washed with 300 μl of cold 1% PBSA and then resuspended in 300 μl 0.3M NaOH. This was counted in the gamma counter as “internalized fraction”.
as §5

Biotinylated human DLL3 = target: T2, Biotinylated human DLL3 (human, UniProt Q9NYJ7 27-492, biotinylated (site not stated)); assay: SPR, biotin-hDLL3 on SA chip
T2 construct: also called Delta-like ligand 3; Delta Like Canonical Notch Ligand 3
T2 sequence (looked up): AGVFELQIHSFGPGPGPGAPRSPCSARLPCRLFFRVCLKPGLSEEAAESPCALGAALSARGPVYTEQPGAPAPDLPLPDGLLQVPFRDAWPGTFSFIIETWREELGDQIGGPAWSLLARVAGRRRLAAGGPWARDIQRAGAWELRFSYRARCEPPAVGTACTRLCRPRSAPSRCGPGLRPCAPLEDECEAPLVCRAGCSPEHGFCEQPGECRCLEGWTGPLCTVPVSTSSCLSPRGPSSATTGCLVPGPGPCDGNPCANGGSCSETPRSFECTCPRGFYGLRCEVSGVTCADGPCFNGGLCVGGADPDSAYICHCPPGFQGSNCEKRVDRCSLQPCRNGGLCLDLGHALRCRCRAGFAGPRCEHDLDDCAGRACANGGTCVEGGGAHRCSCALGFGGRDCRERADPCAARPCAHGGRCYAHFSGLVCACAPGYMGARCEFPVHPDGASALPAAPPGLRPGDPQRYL

| Molecule | Kd (human DLL3) | % Binding (SHP-77 cells [1]) | % Internalization (out of bound fraction) (SHP-77 cells [2]) | binding result (Biotinylated human DLL3) |
| --- | --- | --- | --- | --- |
| CC(=O)N[C@H](C)C(=O)N[C@@H](CO)C(=O)N[C@@H](CC(=O)O)C(=O)N[C@H]1CSSC[C@@H](C(=O)N2CCC[C@@]2(C)C(=O)N[C@@H](Cc2ccccc2)C(=O)N[C@@H](CC(=O)O)C(N)=O)NC(=O)[C@H](CC(N)=O)NC(=O)[C@H](Cc2ccc3ccccc3c2)NC(=O)[C@H](Cc2ccc(CNC(=O)CN3CCN(CC(=O)O)CCN(CC(=O)O)CCN(CC(=O)O)CC3)cc2)NC(=O)[C@H](CC(C)(C)C)NC(=O)[C@H](Cc2cccc3ccccc23)NC1=O [Cpd #158, Ac-(D-Ala)-S-D-C(3)-(1Nal)-(t-Bu-Ala)-[PAF(DOTA)]-(2Nal)-N-C(3)-(aMe-P)-F -D-CONH2] (Ac-[dA]SDC[1Nal][tBuAla][Phe(4-CH2NH2)](DOTA)[2Nal]NC[αMeP]FD-NH2; disulfide 4-10) | 0.12 nM | 25% | 63% | – |
| CC(=O)N[C@H](C)C(=O)N[C@@H](CO)C(=O)N[C@@](C)(CC(=O)O)C(=O)N[C@H]1CSSC[C@@H](C(=O)N2CCC[C@@]2(C)C(=O)N[C@@H](Cc2ccccc2)C(=O)N[C@@H](CC(=O)O)C(=O)N[C@H](CCCCNC(=O)CN2CCN(CC(=O)O)CCN(CC(=O)O)CCN(CC(=O)O)CC2)C(N)=O)NC(=O)[C@H](CC(N)=O)NC(=O)[C@H](Cc2ccc3ccccc3c2)NC(=O)[C@H](CCC(N)=O)NC(=O)[C@H](CC(C)(C)C)NC(=O)[C@H](Cc2cccc3ccccc23)NC1=O [Cpd #168, Ac-(D-Ala)-S-(aMe-Asp)-C(3)-(1Nal)-(t-Bu-Ala)-Q-(2Nal)-N-C(3)-(aMe-P)-F-D-[D-Lys(DOTA)]-NH2] (Ac-[dA]S[αMeD]C[1Nal][tBuAla]Q[2Nal]NC[αMeP]FD[dK](DOTA)-NH2; disulfide 4-10) | 0.026 nM | 8% | 59% | – |
| CC(=O)N[C@H](C(=O)N[C@@H](CO)C(=O)N[C@@H](CC(=O)O)C(=O)N[C@H]1CSSC[C@@H](C(=O)N2CCC[C@@]2(C)C(=O)N[C@@H](Cc2ccccc2)C(=O)N[C@@H](CC(=O)O)C(=O)N[C@H](CCCCNC(=O)CN2CCN(CC(=O)O)CCN(CC(=O)O)CCN(CC(=O)O)CC2)C(N)=O)NC(=O)[C@H](CC(N)=O)NC(=O)[C@H](Cc2ccc3ccccc3c2)NC(=O)[C@H](CCC(N)=O)NC(=O)[C@H](C2CCCCC2)NC(=O)[C@H](Cc2cccc3ccccc23)NC1=O)C1CCCCC1 [compound 125, Ac-(Chg)-S-D-C(3)-(1Nal)-(Chg)-Q-(2Nal)-N-C(3)-(aMe-P)-F-D-D-Lys(DOTA)-CONH2] (Ac-[Chg]SDC[1Nal][Chg]Q[2Nal]NC[αMeP]FD[dK](DOTA)-NH2; disulfide 4-10) | 0.16 nM | 17% | 51% | – |
| Cc1ccccc1C[C@H](NC(=O)[C@]1(C)CCCN1C(=O)[C@@H]1CSSC[C@H](NC(=O)[C@H](CC(=O)O)NC(=O)[C@H](CO)NC(=O)[C@@H](C)NC(=O)CN2CCN(CC(=O)O)CCN(CC(=O)O)CCN(CC(=O)O)CC2)C(=O)N[C@@H](Cc2cccc3ccccc23)C(=O)N[C@@H](CC(C)(C)C)C(=O)N[C@@H](CCC(N)=O)C(=O)N[C@@H](Cc2ccc3ccccc3c2)C(=O)N[C@@H](CC(N)=O)C(=O)N1)C(=O)N[C@@H](CC(=O)O)C(N)=O [compound 154, DOTA-(D-Ala)-S-D-C(3)-(1Nal)-(t-Bu-Ala)-Q-(2Nal)-N-C(3)-(aMe-P)-(2Me-F)-D-CONH2] ({DOTA}-[dA]SDC[1Nal][tBuAla]Q[2Nal]NC[αMeP][Phe(2-Me)]D-NH2; disulfide 4-10) | 0.18 nM | 10% | 58% | – |
| CC(=O)N[C@H](C)C(=O)N[C@@H](CO)C(=O)N[C@@H](CC(=O)O)C(=O)N[C@H]1CSSC[C@@H](C(=O)N2CCC[C@@]2(C)C(=O)N[C@@H](Cc2ccccc2)C(=O)N[C@@H](CC(=O)O)C(=O)N[C@H](CCCCNC(=O)CN2CCN(CC(=O)O)CCN(CC(=O)O)CCN(CC(=O)O)CC2)C(N)=O)NC(=O)[C@H](CC(=O)O)NC(=O)[C@H](Cc2ccc3ccccc3c2)NC(=O)[C@H](C)NC(=O)[C@H](CC(C)(C)C)NC(=O)[C@H](Cc2cccc3ccccc23)NC1=O [compound 166, Ac-(D-Ala)-S-D-C(3)-(1Nal)-(t-Bu-Ala)-Ala-(2Nal)-D-C(3)-(aMe-P)-F-D-[D-Lys(DOTA)]-NH2] (Ac-[dA]SDC[1Nal][tBuAla]A[2Nal]DC[αMeP]FD[dK](DOTA)-NH2; disulfide 4-10) | 0.049 nM | 7% | 58% | – |
| Ac-[Chg]SDCK(DOTA)LQWNCPFD-NH2 (disulfide 4-10; SMILES CC(=O)N[C@H](C(=O)N[C@@H](CO)C(=O)N[C@@H](CC(=O)O)C(=O)N[C@H]1CSSC[C@@H](C(=O)N2CCC[C@H]2C(=O)N[C@@H](Cc2ccccc2)C(=O)N[C@@H](CC(=O)O)C(N)=O)NC(=O)[C@H](CC(N)=O)NC(=O)[C@H](Cc2c[nH]c3ccccc23)NC(=O)[C@H](CCC(N)=O)NC(=O)[C@H](CC(C)C)NC(=O)[C@H](CCCCNC(=O)CN2CCN(CC(=O)O)CCN(CC(=O)O)CCN(CC(=O)O)CC2)NC1=O)C1CCCCC1) [Cpd #97] | – | – | – | no binding |
| Ac-[Chg]SDCWLQK(DOTA)NCPFD-NH2 (disulfide 4-10; SMILES CC(=O)N[C@H](C(=O)N[C@@H](CO)C(=O)N[C@@H](CC(=O)O)C(=O)N[C@H]1CSSC[C@@H](C(=O)N2CCC[C@H]2C(=O)N[C@@H](Cc2ccccc2)C(=O)N[C@@H](CC(=O)O)C(N)=O)NC(=O)[C@H](CC(N)=O)NC(=O)[C@H](CCCCNC(=O)CN2CCN(CC(=O)O)CCN(CC(=O)O)CCN(CC(=O)O)CC2)NC(=O)[C@H](CCC(N)=O)NC(=O)[C@H](CC(C)C)NC(=O)[C@H](Cc2c[nH]c3ccccc23)NC1=O)C1CCCCC1) [Cpd #99] | – | – | – | no binding |
